Test results from publication PMC9972953, “Thermophilic Carboxylesterases from Hydrothermal Vents of the Volcanic Island of Ischia Active on Synthetic and Biobased Polymers and Mycotoxins” (Applied and Environmental Microbiology, 2023).

What was measured:
Format in all cases: biochemical, uncultured Chloroflexota bacterium
Settings in all cases: pH 9.0, 30°C
[1] = system: T1, IS10; test: spectrophotometric release of α-naphthol, […] nm
T1 construct: N-terminal 6xHis tag (pET-46 Ek/LIC), E. coli BL21(DE3); dimer in solution

[2] = system: T2, IS12; test: spectrophotometric release of α-naphthol, […] nm
T2 construct: N-terminal 6xHis tag (pET-46 Ek/LIC), E. coli BL21(DE3); dimer in solution

[3] = system: T2, IS12; test: spectrophotometric release of p-nitrophenol, […] nm
[4] = system: T1, IS10; test: spectrophotometric release of p-nitrophenol, […] nm

SMILES	Km [1] [µM]	Km [2] [µM]	KM [1] [µM]	Km [3] [µM]	Km [4] [µM]
CCC(=O)Oc1cccc2ccccc12 [αN-propionate]	60 ± 20	690 ± 190			
CCCC(=O)Oc1cccc2ccccc12 [αN-butyrate]			120 ± 40		
CCCC(=O)Oc1ccc([N+](=O)[O-])cc1 [pNP-butyrate]				80 ± 10	60 ± 10
CCCCCC(=O)Oc1ccc([N+](=O)[O-])cc1 [pNP-hexanoate]				90 ± 10	40 ± 10
CC(=O)Oc1ccc([N+](=O)[O-])cc1 [pNP-acetate]				220 ± 50	50 ± 10
